Two molecules from patent publication US20100256199A1, “Crystalline form of an Antimalarial Compound” (Glaxo Group Limited, priority 2007, published 2010) can be followed below.

Common to all, as to type: physicochemical
The nature of data set [1]: Stability of the polymorphic forms at ambient temperature.
The nature of data set [2]: Competitive ripening experiments between Form 1 and Form 2 (relative thermodynamic stability). How it is done:
Forms 1 and 2 of the compound of Formula (I) are both stable at ambient temperature. Competitive ripening experiments between Form 1 and 2 of the compound of Formula (I) were conducted in i) a mixture of acetone and 1-propanol at 23° C.; ii) in acetone at 10° C. and iii) in acetone at 50° C.

Data set [3] in a line: Hygroscopicity of the crystalline form.

Regarding `Cc1[nH]c(CO)c(-c2ccc(Oc3ccc(OC(F)(F)F)cc3)cc2)c(=O)c1Cl` [Form 1, 3-chloro-6-(hydroxymethyl)-2-methyl-5-[4-({4-[(trifluoromethyl)oxy]phenyl}oxy)phenyl]-4(1H)-pyridinone], the “Stability at ambient temperature” value in data set [1] is given as “stable”. In addition, in data set [2] (i) mixture of acetone and 1-propanol at 23° C.; ii) acetone at 10° C.; iii) acetone at 50° C., same outcome in each), the “Polymorphic form conversion in competitive ripening experiments” value is “converted to Form 2”.
As for `Cc1[nH]c(CO)c(-c2ccc(Oc3ccc(OC(F)(F)F)cc3)cc2)c(=O)c1Cl` [Form 2, 3-chloro-6-(hydroxymethyl)-2-methyl-5-[4-({4-[(trifluoromethyl)oxy]phenyl}oxy)phenyl]-4(1H)-pyridinone], the Hygroscopic nature entry in data set [3] is on record as “non-hygroscopic”. Besides, the Relative thermodynamic stability result in data set [2] (at ambient temperatures, for example at 23° C.) was “thermodynamically more stable than Form 1”; in data set [2] (between 10° C. and 50° C.), “thermodynamically more stable than Form 1”.
